Measured values reported in PubChem BioAssay (NCI).
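Five concentrations, 48 hours, 96-well plates. GI50 is the concentration that inhibits growth by half. TGI: total growth inhibition.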

Experiments:
Assay in all cases: NCI anticancer screen, dose series, 48 h
ACHN renal = tested on: ACHN renal
COLO 205 colon = tested on: COLO 205 colon
HCT-116 colon = tested on: HCT-116 colon
HOP-62 NSCLC = tested on: HOP-62 NSCLC
IGROV1 ovarian = tested on: IGROV1 ovarian
MDA-MB-231 breast = tested on: MDA-MB-231 breast
NCI-H226 lung = tested on: NCI-H226 lung
RPMI-8226 leukemia = tested on: RPMI-8226 leukemia
SF-268 CNS = tested on: SF-268 CNS
UACC-62 melanoma = tested on: UACC-62 melanoma

Compound	GI50 (ACHN renal) [µM]	TGI (ACHN renal) [µM]	GI50 (COLO 205 colon) [µM]	TGI (COLO 205 colon) [µM]	GI50 (HCT-116 colon) [µM]	TGI (HCT-116 colon) [µM]	TGI (HOP-62 NSCLC) [µM]	GI50 (IGROV1 ovarian) [µM]	TGI (IGROV1 ovarian) [µM]	GI50 (MDA-MB-231 breast) [µM]	TGI (MDA-MB-231 breast) [µM]	GI50 (NCI-H226 lung) [µM]	TGI (NCI-H226 lung) [µM]	GI50 (RPMI-8226 leukemia) [µM]	TGI (RPMI-8226 leukemia) [µM]	GI50 (SF-268 CNS) [µM]	TGI (SF-268 CNS) [µM]	GI50 (UACC-62 melanoma) [µM]	TGI (UACC-62 melanoma) [µM]	GI50 (HOP-62 NSCLC) [µM]
CCN1C(=O)N(CC)C2C1NC(=S)N2/N=C/C=C/c1ccccc1 (centres undefined)	0.098	> 100	0.213	5.44	0.106	> 100	> 100	0.142	> 100	0.376	> 28.1	0.383	> 100	0.183	> 64.2	0.32	> 100	0.0439	> 100	–
Oc1cn(-c2ccc(Cl)cc2)nc1-c1n[nH]c(=S)n1-c1ccc(F)cc1	28.8	> 100	61.4	> 100	11.6	25.5	54.6	7.12	24.1	10.2	60.1	26.6	90.2	22.2	> 100	14.7	70.8	12	28	22.7
CC(=O)Nc1cccc(C#Cc2cncnc2Nc2ccc(OCc3cccc(F)c3)c(Cl)c2)c1	6.09	> 25	9.17	> 25	9.1	> 25	> 25	4.49	> 25	15.6	> 25	10	> 25	12.7	> 25	16.6	> 25	8.88	> 25	> 19.8
O=C(Nc1nc2ccc(S(=O)(=O)Nc3ccc(C4(C(F)(F)F)CC4)cc3)cc2[nH]1)c1cnccn1	4.39	18.2	2.84	17.5	1.66	15.9	23	1.9	18.5	5.32	19.4	2.08	9.51	1.16	5.39	4.21	20.6	1.51	15.4	3.85
Nc1c(C(=O)Nc2ccccc2)sc2nc3c(cc12)C(=O)CCC3	0.948	> 100	0.364	2.99	0.512	> 100	> 100	1.01	> 100	2.32	> 100	3.91	> 100	0.303	> 100	1.02	> 100	0.557	> 100	0.745
OCC1OC(OC2(CO)OC(CO)C(O)C2O)C(O)C(O)C1O (centres undefined)	> 100	> 100	> 100	> 100	> 100	> 100	> 100	> 100	> 100	> 100	> 100	> 100	> 100	> 100	> 100	> 100	> 100	> 100	> 100	> 100
Nc1nc(-c2ccccc2)c(CC(=O)O)s1	–	> 100	–	> 100	–	> 100	> 100	–	> 100	–	> 100	–	> 100	–	> 100	–	> 100	–	> 100	–
N#CN1CC[C@H](C(=O)Nc2ncc(-c3ccccc3)s2)C1	0.562	2.49	0.195	0.449	0.323	2.18	4.21	0.449	5.59	0.41	4.65	0.693	4.19	0.27	0.854	0.789	4.23	0.371	2.18	1.37
CN(C)CCNC(=O)Nc1ccc(N(C)c2ccnc(Nc3ccc(CS(C)(=O)=O)cc3)n2)cc1	> 25	> 25	> 25	> 25	> 25	> 25	> 25	> 25	> 25	> 25	> 25	> 23.7	> 25	> 25	> 25	> 25	> 25	> 25	> 25	> 25
CCOC(=O)c1cn(C)c2c(OC)c3ccccc3c(OC)c2c1=O	46.8	> 100	63.8	> 100	19.6	38.5	82.7	52.6	> 100	32.6	> 100	23.8	57.1	23.8	> 100	20.1	74.9	19.5	36.4	33.3
OCCNc1nc2ccccc2c2[nH]c3ccccc3c12	0.278	2.67	0.329	1.37	0.278	1.68	6.66	0.397	6.1	0.611	3.63	0.839	4.79	0.388	3.91	0.519	3.42	1.36	6.52	0.583
O=c1[nH]c(=S)[nH]c(O)c1/C=C1\C=Nc2ccccc21	11.4	24.3	3.77	18.3	2.49	10.1	38.4	1.02	5.55	4.1	33.6	12.5	46.1	2.34	6.49	2.52	7.91	8.26	46.9	3.66
Cn1cc(-c2ccc3ncc(-c4ccc(CC(=O)Nc5cc(C(C)(C)C)nn5C)cc4)cc3c2)cn1	0.689	> 20	2.78	> 20	0.887	> 20	> 20	0.568	> 20	2.37	> 20	1.05	13.3	0.64	4.07	1.45	> 20	1.26	6.65	3.96
